Results on two molecules are retold here after the NIST ThermoML archive (doi:10.1016/j.fluid.2014.06.023).

Structures are written as SMILES. ± gives the expanded uncertainty stated by the source.

For data set [1] the following is noted: 293.15 K, 101.33 kPa, Pycnometric method.
The nature of data set [2]: refractive index (Na D-line) (dimensionless). The settings on record: 293.15 K; 101.33 kPa; Crystal; Standard Abbe refractometry.

Usually mass density stands for the mass of a sample divided by its volume. As for `CCCCO` [butan-1-ol], the mass density in data set [1] (Liquid) turned out to be 810 ± 12 kg/m3. By refractive index is commonly meant the speed of light in vacuum divided by its phase velocity in the sample. Regarding `Cl.N` [ammonium chloride (NH4Cl)], in data set [1] (Crystal), the mass density amounted to 1527 ± 12 kg/m3. Also, the refractive index in data set [2] is 1.638 ± 0.0008.
